Laboratory results taken from patent publication US6455577B2, “Flavanone derivatives and composition for preventing or treating blood lipid level-related diseases comprising same” (Korea Research Institute of Bioscience and Biotechnology, priority 2000, dated 2002).

Legend:
[1] = system: Sprague-Dawley rats; assay: Plasma total cholesterol, HDL-cholesterol and triglyceride levels in rats fed high-cholesterol diet; format: in vivo, rat
Text: (Step 1) Administration of NG5006 to rats
30 four-week-old white Sprague-Dawley rats (Korea Institute of Science and Technology, Korea), each weighing about 90 to 120 g, were evenly divided into three dietary groups by a randomized block design. The rats of the three groups were fed with three different high-cholesterol diets, i.e., AIN-76 laboratory animal diet(ICN Biochemicals, Cleveland, Ohio, U.S.A.) containing 1% cholesterol(Control group), 1% cholesterol plus 0.02% naringenin and 1% cholesterol plus 0.036% NG5006, respectively.
The rats were allowed to feed freely on the specified diet together with water for six weeks, the ingestion amount was recorded daily and the rats were weighed every 7 days, and then the record was analyzed. […] (Step 2) Determination of total cholesterol, HDL-cholesterol and triglyceride contents in blood
The effects of administering naringenin or NG5006 to rats on the plasma cholesterol and triglyceride contents were determined as follows.
Blood samples were taken from the rats of the three dietary groups and total cholesterol level was determined by using Sigma Diagnostic Kit Cat. No. C0534(Sigma Chemical Co., U.S.A.). HDL fractions were separated therefrom by using HDL-cholesterol reagent(Sigma Chemical Co., Cat. No. 352-1) and HDL-cholesterol level was determined by using Sigma Diagnostic Kit Cat. No. C9908(Sigma Chemical Co., U.S.A.). Triglyceride level was determined by using Sigma Diagnostic Kit Cat. No. 336-10(Sigma Chemical Co., U.S.A.).

[2] = system: ACAT; assay: ACAT activity in liver microsomes of fed rats; format: in vivo, rat; conditions: liver microsomes of rats fed 1% cholesterol plus 0.02% naringenin or 0.036% NG5006, six weeks
Method: (§1) To determine the effect of feeding NG5006 to rats on the activities of ACAT and HMG-CoA reductase, microsomes were separated from liver tissues to be used as an enzyme source.
(§2) 1 g each of the livers taken from each group of rats of Example 12 was homogenized in 5 ml of homogenization medium(0. 1 M KH2PO4, pH 7.4, 0.1 mM EDTA and 10 mM β-mercaptoethanol). The homogenate was centrifuged at 3,000×g for 10 min. at 4° C. and the supernatant thus obtained was centrifuged at 15,000×g for 15 min. at 4° C. to obtain a supernatant. The supernatant was put into an ultracentrifuge tube(Beckman) and centrifuged at 100,000×g for 1 hour at 4° C. to obtain microsomal pellets, which were then suspended in 3 ml of the homogenization medium and centrifuged at 100,000×g for 1 hour at 4° C. The pellets thus obtained were suspended in 1 ml of the homogenization medium. The protein concentration of the resulting suspension was determined by Lowry's method and then adjusted to 4 to 8 mg/ml. The resulting suspension was stored in a deep freezer(Biofreezer, Forma Scientific Inc.).
6.67 μl of 1 mg/ml cholesterol solution in acetone was mixed with 6 μl of 10% Triton WR-1339(Sigma Co.) in acetone and then, acetone was removed from the mixture by evaporation under a nitrogen flow. Distilled water was added to the resulting mixture to adjust the concentration of cholesterol to […].
Added to 10 μl of the resulting aqueous cholesterol solution were 10 μl of 1 M KH2PO4(pH 7.4), 5 μl of 0.6 mM bovine serum albumin(BSA), 10 μl of microsome solution obtained in (Step 1) and 55 μl of distilled water(total 90 μl). The mixture was pre-incubated in a water bath at 37° C. for 30 min. […]
200 μl of the resulting supernatant was put in a scintillation bottle and 4 ml of scintillation fluid(Lumac Co.) was added thereto. The mixture was assayed for radioactivity with 1450 Microbeta liquid scintillation counter(Wallac Co., Finland). ACAT activity was calculated as picomoles of cholesteryl oleate synthesized per min. per mg protein(pmoles/min/mg protein).

[3] = biological target: T1, HMG-CoA reductase (Rattus norvegicus, UniProt P51639); assay: HMG-CoA reductase activity in liver microsomes of fed rats; format: in vivo; conditions: liver microsomes of rats fed 1% cholesterol plus 0.02% naringenin or 0.036% NG5006, six weeks
T1 construct: microsomes were separated from liver tissues to be used as an enzyme source; from tissue; host or cells: liver microsomes of fed rats
T1 sequence (P51639 1-887): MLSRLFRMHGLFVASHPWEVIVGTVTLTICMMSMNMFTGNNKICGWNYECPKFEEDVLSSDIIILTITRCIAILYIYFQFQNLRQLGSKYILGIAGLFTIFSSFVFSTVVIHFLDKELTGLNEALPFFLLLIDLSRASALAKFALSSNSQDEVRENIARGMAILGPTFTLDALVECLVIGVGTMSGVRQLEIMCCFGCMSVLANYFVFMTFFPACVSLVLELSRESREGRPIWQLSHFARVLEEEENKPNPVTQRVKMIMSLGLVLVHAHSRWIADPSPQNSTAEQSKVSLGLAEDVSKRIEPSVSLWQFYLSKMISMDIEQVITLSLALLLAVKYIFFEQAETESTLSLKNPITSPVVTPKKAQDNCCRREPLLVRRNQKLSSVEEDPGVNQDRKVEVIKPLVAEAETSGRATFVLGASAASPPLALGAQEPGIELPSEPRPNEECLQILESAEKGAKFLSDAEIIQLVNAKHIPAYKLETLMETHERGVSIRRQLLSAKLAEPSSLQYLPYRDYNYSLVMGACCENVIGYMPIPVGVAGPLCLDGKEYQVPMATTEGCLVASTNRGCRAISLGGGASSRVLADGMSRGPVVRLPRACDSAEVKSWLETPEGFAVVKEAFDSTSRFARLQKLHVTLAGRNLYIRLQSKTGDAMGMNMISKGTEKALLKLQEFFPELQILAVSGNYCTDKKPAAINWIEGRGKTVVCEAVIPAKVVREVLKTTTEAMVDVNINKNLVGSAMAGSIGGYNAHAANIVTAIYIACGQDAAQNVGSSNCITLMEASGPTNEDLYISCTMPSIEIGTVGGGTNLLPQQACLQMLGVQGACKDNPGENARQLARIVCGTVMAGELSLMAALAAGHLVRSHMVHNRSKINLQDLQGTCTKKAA
Method: as §1, §2
The activity of HMG-CoA reductase was determined by employing [^14C]HMG-CoA, in accordance with the method of Shapiro et al.(Biochemica et Biophysica Acta, 370, 369-377(1974)) as follows.
The enzyme in the supernatant containing the microsome obtained in (Step 1) was activated at 37° C. for 30 min. Added to a reaction tube were 20 μl of HMG-CoA reductase assay buffer(0.25M KH2PO4(pH 7.0), 8.75 mM EDTA, 25 mM DTT, 0.45 M KCl and 0.25 mg/ml BSA), 5 μl of 50 mM NADPH, 5 μl of [^14C]HMG-CoA(0.05μ Ci/tube, final conc. 120μM), and 10 μl of activated microsomal enzyme(0.03-0.04 mg), and the mixture was incubated at 37° C. for 30 min. […] A region having a Rf value ranging from 0.65 to 0.75 was removed by scraping with a disposable cover slips and assayed for radioactivity with 1450 Microbeta liquid scintillation counter(Wallac Co., Finland). Enzyme activities were calculated as picomoles mevalonic acid synthesized per min. per mg protein(pmoles/min/mg protein).

[4] = system: New Zealand White rabbits; assay: Fatty streak in the main artery of cholesterol-fed rabbits; format: in vivo, rabbit
Method: (§3) 22 three-month-old New Zealand White rabbits(Yeonam Horticulture and Animal Husbandry College, Korea) each weighing about 2.0 to 2.3 kg were bred under a condition of temperature 20±2° C., relative humidity 55±10%, and photoperiod 12L/12D. The rabbits were divided two groups of 6 rabbits and a group of 10 rabbits, and the rats of three groups were fed with three different diets, i.e., RC4 diet(Oriental Yeast Co., Japan) containing 1% cholesterol(Control group); 1% cholesterol plus 1 mg/kg Lovastatin® (Merck, U.S.A.)(Comparative group); and 1% cholesterol plus 0.1% NG5006, respectively. RC4 diet comprises 7.6% moisture, 22.8% crude protein, 2.8% crude fat, 8.8% crude ash, 14.4% crude cellulose and 43.6% soluble nitrogen-free substances. The rabbits were bred for 8 weeks while being allowed free access to the diets and water.
The rabbits bred in Step 1 were sacrificed and their chest were incised. The main artery was cut out therefrom in a length of about 5 cm downward from the site 1 cm above the aortic valve and the fat surrounding the main artery was removed. The main artery was incised in the middle along the longitudinal axis and fixed in 10% neutral buffered formalin for 24 hours, and then, pinned to a dish. The moist artery was photographed and, then, staining of fatty streak was carried out in accordance with the method of Esper, E., et al. (J. Lab. Clin. Med., 121, 103-110(1993)) as follows.
A part of the incised main artery was washed three times by 2 min. with anhydrous propylene glycol and stained for 30 min. with a saturated solution of Oil Red O(ORO, Sigma Co.) dissolved in propylene glycol. Thereafter, the artery was washed twice by 3 min. with 85% propylene glycol to remove remaining staining solution and, then washed with physical saline. The artery was photographed and the photograph was traced. The area of stained legion(fatty streak legion) was determined with an image analyzer(LEICA, Q-600, Germany) and its proportion(%) to the total arterial area was calculated. The result is shown in Table V. The results were tested by student t-test by using Microsoft excel(version 7.0) program.

[5] = system: ACAT; assay: ACAT activity in fed rabbits; format: in vivo, rabbit; conditions: rabbits fed 1% cholesterol plus 1 mg/kg Lovastatin or 0.1% NG5006, 8 weeks
Method: as §3
The effect of feeding NG5006 to rabbits on the activities of ACAT was determined using the rabbits bred in Step 1 of Example 14 in accordance with procedure disclosed in step 1 of Example 13.

[6] = system: New Zealand White rabbits; assay: Abnormal fat-containing liver cells (fatty liver) in cholesterol-fed rabbits; format: in vivo, rabbit
Method: as §3
In order to evaluate the effects of feeding a high cholesterol diet with NG5006 on liver tissues, the liver specimens taken from the sacrificed rabbit in Step 2 of Example 14 were treated in accordance with the procedure disclosed in Fogt F. and Nanji A., Toxicology and Applied Pharmacology, 136, 87-93, 1996; and Keegan A., et al., Journal of Hepatology, 23, 591-600, 1995, and observed under a microscope to be classified into four grades, i.e., 1+(0-25%), 2+(26-50%), 3+(51-75), 4+(76-100%) based on the proportion of abnormal fat-containing cells around the central vein in the liver acinus. The results were tested by student t-test by using Microsoft excel(version 7.0) program.

[7] = plasma, rats on 1% cholesterol diet plus 0.02% naringenin or 0.036% NG5006, six weeks
[8] = rats, 1% cholesterol diet, six weeks
[9] = 1% cholesterol plus 1 mg/kg Lovastatin or 0.1% NG5006

| SMILES | HDL-C (HDL-cholesterol) [1, 7] | HDL-C/Total-C [1, 7] | TG (triglyceride) [1, 7] | Total-C (total cholesterol) [1, 7] | AI: Atherosclerosis Index (AI = (Total-C − HDL-C)/HDL-C) ([1]; rats on 1% cholesterol diet plus 0.02% naringenin or 0.036% NG5006, six weeks) | total plasma cholesterol level lower than in the Control group [1, 8] | triglyceride level lower than in the control group [1, 8] | ACAT activity [2] | HMG-CoA reductase activity [3] | layer on the arterial endothelium (FIGS. 1B, 1C) [4, 9] | formation of fatty streak compared to the control group, in words ([4]; 1% cholesterol plus 1 mg/kg Lovastatin or 0.1% NG5006, 8 weeks) | Fatty Streak lesion (proportion of total arterial area) ([4]; 1% cholesterol plus 1 mg/kg Lovastatin or 0.1% NG5006, 8 weeks, Oil Red O staining) | ACAT activity [5] | % Inhibition on ACAT Activity ([5]; versus control group) | microscopic features of the livers (FIGS. 2B, 2C) [6, 9] | Proportion of abnormal fat-containing liver cells (grade) ([6]; grades 1+(0-25%), 2+(26-50%), 3+(51-75), 4+(76-100%), 1% cholesterol plus 1 mg/kg Lovastatin or 0.1% NG5006, 8 weeks) |
| --- | --- | --- | --- | --- | --- | --- | --- | --- | --- | --- | --- | --- | --- | --- | --- | --- |
| O=C1C[C@@H](c2ccc(O)cc2)Oc2cc(O)cc(O)c21 [Naringenin, naringenin, reference compound] | 35.8 ± 1.5 mg/dL | 18.8 ± 0.9% | 143.7 ± 9.4 mg/dL | 190.6 ± 7.6 mg/dL | 4.3 ± 0.3 | 16% | 6% | 153.3 ± 6.9 pmole/min/mg protein | 87.7 ± 5.9 pmole/min/mg protein | – | – | – | – | – | – | – |
| CC[C@H](C)C(=O)O[C@H]1C[C@@H](C)C=C2C=C[C@H](C)[C@H](CC[C@@H]3C[C@@H](O)CC(=O)O3)[C@H]21 [Lovastatin ®, Lovastatin, reference compound] | – | – | – | – | – | – | – | – | – | no or very thin layers of macrophage-lipid complex | significantly inhibit the formation of fatty streak | 18.0 ± 9.5% | 246.1 ± 52.5 pmole/min/mg protein | 4.2% | many cells containing excessive fat were observed around the central vein | 3.3 ± 1.1 |
